How the values were obtained:
[1] = Nitric oxide absorption by carriers (weight gain on bubbling NO gas); assay type: physicochemical; details: NO gas bubbled 40 hr, 25 °C
Method: This example illustrates one technique for preparing a composition in accordance with one embodiment of the invention. An accurate amount of a carrier (HNC 167-62) (see below) was introduced into a system. The carrier weight used in these experiments was approximately 250 g and the vessel size was 500 ml. The vessel was equipped with a mechanical stirrer, gas inlet, and gas outlet and was previously purged with argon for about an hour. The temperature of the carrier was kept at about 25-30° C. NO gas regulated at 5 psi (1 psi is about 6,900 Pa) and was then introduced at a controlled rate of about 1 bubble/s with continuous stirring. […] After 6 hours, the weight of the carrier had increased by 0.15%, by 12 hours by 0.25%, and by 24 hours by 0.56%. These increases in weight were believed to be significant considering the relative small molecular weight of NO versus the carrier. […] The carrier also can solidify upon cooling if the carrier is initially a solid at lower temperature.
Each carrier was taken in a 500 mL three necked flask equipped with a mechanical stirrer, gas inlet and a gas outlet. The system was purged with argon for one hour at room temperature (25° C.). Then nitric oxide gas was bubbled into the system. Then, nitric oxide gas was bubbled through carrier for stipulated amount of time. The changes in weight and color were noted. […]

[2] = tested on: capillary circulation of the skin; test: Laser Doppler circulation in five human subjects (Example 8); assay type: in vivo; details: positive control formulation containing 0.1% methyl nicotinate
Description: This example illustrates delivery of nitric oxide formulations to five human subjects, using procedures and formulations similar to those discussed in Example 6. Each person served as their own control for the testing. A Moor Instruments Laser Doppler was used to determine circulation. […] The formulations used produce positive, almost immediate results when applied to the skin which, in these studies, was manifested by vasodilatation of the cutaneous vascular system.
For each subject, the following creams were applied: a negative control formulation (containing no NO), 0.010 gram of a 10,000 ppm NO formulation, 0.020 gram of a 10,000 ppm NO formulation, and a positive control formulation containing 0.1% methyl nicotinate. The formulations were prepared using procedures similar to those discussed in Example 1.

[3] = tested on: micro-capillary blood flow to skin; test: Laser Doppler capillary blood flow in humans, 10,000 ppm NO in closed chamber (Example 6); assay type: in vivo; details: applied to the skin at 1/10% in alcohol
Description: The formulation used in these studies contained nitric oxide dispersed in a lipid matrix. […] Nitric oxide is a very rapid acting molecule, and these studies used a system that employed laser Doppler with a covered chamber. The formulation was placed into the chamber and then attached to the skin by an adhesive layer on the covering. This provided a stable measuring device as determined by multiple normal evaluations of the capillary blood flow without treatment of nitric oxide.
A known positive control, methyl nicotinate, was applied to the skin at a concentration of 1/10% in alcohol. […] The vascular dynamics are such that when the blood vessels dilate physical parameters follow Bernoulli's law. This states that as one increases the diameter of a tube containing a liquid to flow will increase but the pressure and the speed of the liquid will decrease. The laser Doppler device accurately measured these parameters.
The test product was labeled as 10,000 ppm NO (nitric oxide). The study participants had 100 mg of the test product applied in a closed Hilltop chamber on the forearm. […]
A Moor Instruments DRT4 Laser Doppler Blood Flow Monitor (Devon, England) was used in these studies. The laser Doppler technique measured blood flow in the microcapillaries of the skin that are close to the skin surface and the blood flow in underlying arterioles and venules that help to regulate skin temperature. […]

SMILES | % Wt. gain [1] | vasodilatation [2] | laser Doppler response of positive control [3]
OCCCO [1,3-Propanediol, 1,3-propanediol] | 0.09% | – | –
COC(=O)c1cccnc1 [methyl nicotinate] | – | vasodilatation was observed | rapid response typical of the vasodilator

Reference: patent publication US9295638B2, “Prevention and treatment of cardiovascular diseases using systems and methods for transdermal nitric oxide delivery” (priority 2012, dated 2016)
